Consider four molecules from patent US11464771B2, “Bromodomain and extra-terminal protein inhibitor combination therapy” (CELGENE QUANTICEL RESEARCH, INC., priority 2016, dated 2022).

The conditions of data set [1]: non-leukemic hematologic malignancies; cited from earlier work.
The subject of data set [2] is PA0165 pancreatic xenograft. As to the kind of experiment: Pancreatic xenograft PA0165, Compound A and Romidepsin. The class given is in vivo, NSG mice. As to the method: 3/4 is 3 days on and 4 days off; Q4D is once every 4 days; Q7D is once every 7 days; —— Control; - - - - Compound A 25 mg/kg, 3/4; - —— - —— Romidepsin 1.5 mg/kg Q4D×3; —— —— Compound A 25 mg/kg. 3/4 combined with Romidepsin 1.5 mg/kg Q7D; - - - Compound A 25 mg/kg, 3/4 combined with Romidepsin 0.75 mg/kg Q7D. Tumor volumes were plotted as mean±standard error of the mean (SEM).
3/4 is 3 days on and 4 days off; Q4D is once every 4 days. —— Control; - - - - Compound A at 25 mg/kg, 3/4; - —— - —— Romidepsin 1.5 mg/kg Q4D×3; —— —— Compound A 25 mg/kg, 3/4 combined with Romidepsin 1.5 mg/kg Q7D; - - - Compound A 25 mg/kg, 3/4 combined with Romidepsin 0.75 mg/kg Q7D.
Cohorts of 4-6 wk-old NSG mice bearing PA0165 were treated with Romidepsin at 1.5 mg/kg intravenous (IV)×3 Q4D; Compound A 25 mg/kg orally QD 3 days on then 4 days off; or with a combination of Compound A 25 mg/kg orally QD 3 days on then 4 days off and Romidepsin at 1.5 or 0.75 mg/kg IV Q7D. The treatment lasted 21 days.

The subject of the next data set is locally advanced BCC. Conditions: cited from earlier work.
Another data set deals with basal cell carcinoma. To be noted: BCC; cited from earlier work.

On to `Cc1sc2c(c1C)C(c1ccc(Cl)cc1)=N[C@@H](CC(=O)Nc1ccc(O)cc1)c1nnc(C)n1-2` [OTX015], for which, in data set [1], the “patients with Grade 3 hyperglycemia” value is 1 patient.

For the molecule `C/C=C1\NC(=O)[C@H]2CSSCC/C=C/[C@H](CC(=O)N[C@H](C(C)C)C(=O)N2)OC(=O)[C@H](C(C)C)NC1=O` [Romidepsin, (1S,4S,7Z,10S,16E,21R)-7-ethylidene4,21-diisopropyl-2-oxa-12,13-dithia-5,8,20,23-tetrazabicyclo[8.7.6]tricos-16-ene-3,6,9,19,22pentone, reference compound], the tumour growth inhibition (TGI) in data set [2] (Romidepsin 1.5 mg/kg IV ×3 Q4D alone, 21 days) stood at 45%. In data set [2] (day 30, Romidepsin only group), the survival rate entry is listed as “about 10%”.

`Cc1c(C(=O)Nc2ccc(N3C[C@@H](C)O[C@@H](C)C3)nc2)cccc1-c1ccc(OC(F)(F)F)cc1` [sonidegib]: in the data set on locally advanced BCC, the “investigator-assessed responses lasting at least six months” value is recorded as 60%.

In the case of `CS(=O)(=O)c1ccc(C(=O)Nc2ccc(Cl)c(-c3ccccn3)c2)c(Cl)c1` [vismodegib], in the data set with basal cell carcinoma, the “median duration of response” value is given as 7.6 months.

One may read the TGI as the reduction of tumour growth relative to the control group.
